Test system: Helicobacter pylori
Experiment: Activity against Helicobacter pylori (MIC, Columbia agar (Oxoid), growth period of 4 days)
Format: cell-based
Details: 96 h, methodology of Tomoyuki Iwahi et al.
From the text: The compounds according to the invention were investigated with respect to their activity against Helicobacter pylori following the methodology described by Tomoyuki Iwahi et al. (Antimicrobial Agents and Chemotherapy,1991, 490-496) using Columbia agar (Oxoid) and with a growth period of 4 days.

Row | SMILES | MIC
1 | Cc1c(C)[n+]2cccc(OCc3ccccc3)c2n1CCc1ccccc1 [Compound 5, 8-Benzyloxy-2,3-dimethyl-1-phenethylimidazo[1,2-a]pyridinium bromide] | ≤ 10 µg/mL
2 | Cc1c(CC#N)[n+]2cccc(OCc3ccccc3)c2n1CCc1ccccc1 [Compound 6, 8-Benzyloxy-3-cyanomethyl-2-methyl-1-phenethylimidazo[1,2-a]pyridinium bromide] | ≤ 10 µg/mL
3 | C#CCc1c(C)n(CCc2ccccc2)c2c(OCc3ccccc3)ccc[n+]12 [Compound 7, 8-Benzyloxy-2-methyl-1-phenethyl-3-(2-propynyl)imidazo[1,2-a]pyridiniumbromide] | ≤ 10 µg/mL
4 | Cc1c(C)[n+]2cccc(OCc3ccccc3)c2n1Cc1cc(F)cc(F)c1 [Compound 10, 8-Benzyloxy-1-(3,5-difluorobenzyl)-2,3-dimethylimidazo[1,2-a]pyridiniumbromide] | ≤ 10 µg/mL

More lines, now with the values ahead:

Row | MIC | SMILES
5 | ≤ 10 µg/mL | Cc1c(C)[n+]2cccc(OCc3ccccc3)c2n1Cc1ccc(F)cc1 [Compound 3, 8-Benzyloxy-1-(4-fluorobenzyl)-2,3-dimethylimidazo-[1,2-a]pyridinium bromide]
6 | ≤ 10 µg/mL | COC(=O)c1ccc(Cn2c(C)c(C)[n+]3cccc(OCc4ccccc4)c23)cc1 [Compound 4, 8-Benzyloxy-1-(4-methoxycarbonylbenzyl)-2,3-dimethylimidazo[1,2-a]pyridinium bromide]
7 | ≤ 10 µg/mL | Cc1c(C)[n+]2cccc(OCc3ccccc3)c2n1Cc1ccc2ccccc2c1 [Compound 12, 8-Benzyloxy-2,3-dimethyl-1-(2-naphthylmethyl)imidazo[1,2-a]pyridinium bromide]
8 | ≤ 10 µg/mL | Cc1c(C)[n+]2cccc(OCc3ccccc3)c2n1Cc1cccc(C#N)c1 [Compound 13, 8-Benzyloxy-1-(3-cyanobenzyl)-2,3-dimethylimidazo[1,2-a]pyridinium bromide]
9 | ≤ 10 µg/mL | Cc1c(C)[n+]2cccc(OCc3ccccc3)c2n1Cc1ccc(-c2ccccc2)cc1 [Compound 18, 8-Benzyloxy-1-(4-biphenylmethyl)-2,3-dimethylimidazo[1,2-a]pyridinium bromide]

Reference: patent publication US5824687A, “Pyridinium salts and their use for the control of helicobacter bacteria” (BYK Gulden Lomberg Chemische Fabrik GmbH, priority 1993, dated 1998)
